pIC50: −log10 of the molar value.
Target: T1, RORc ligand binding domain (Homo sapiens, UniProt P51449)
T1 construct: host or cells: E. coli
T1 sequence (P51449 269-508 limits assumed): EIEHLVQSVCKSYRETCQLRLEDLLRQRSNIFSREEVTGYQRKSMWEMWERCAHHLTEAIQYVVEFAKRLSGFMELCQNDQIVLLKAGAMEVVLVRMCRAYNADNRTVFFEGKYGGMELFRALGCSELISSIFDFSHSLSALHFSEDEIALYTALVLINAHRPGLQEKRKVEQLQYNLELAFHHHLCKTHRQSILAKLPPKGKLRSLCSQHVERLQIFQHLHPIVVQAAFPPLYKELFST
Experiment: In vitro RORc ligand binding assay (25-[3H]hydroxycholesterol displacement, filter binding)
Settings: 6 nM 25-[3H]hydroxycholesterol, 0.6 ug/mL RORc receptor, 3 h at 25° C.
Method in brief: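 Filter-binding displacement of 6 nM 25-[3H]hydroxycholesterol from RORc receptor (0.6 ug/mL) in 50 mM HEPES pH 7.4, 150 mM NaCl, 5 mM MgCl2, 1 mM DTT, 0.01% BSA, 5% DMSO; 3 h at 25° C. NSB defined with 1 uM 25-hydroxycholesterol; scintillation counting gave Kiapp, IC50 or % inhibition (screening at 1 and 10 uM).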

SMILES	pIC50
CC1(C)[C@H]2CC[C@]1(c1ccccn1)c1nnc(-c3c(F)cccc3F)cc12 [Example 153]	7.62
CC1(C)[C@H]2CC[C@]1(c1cccnc1)c1nnc(-c3c(F)cccc3F)cc12 [Example 154, (5R,8S)-3-(2,6-difluorophenyl)-9,9-dimethyl-8-(pyridin-3-yl)-5,6,7,8-tetrahydro-5,8-methanocinnoline]	7.64
Cc1nnc(N(CCO)C[C@@]23CC[C@@H](c4cc(-c5c(F)cccc5F)nnc42)C3(C)C)o1 [Example 155, 2-((((5R,8S)-3-(2,6-difluorophenyl)-9,9-dimethyl-5,6,7,8-tetrahydro-5,8-methanocinnolin-8-yl)methyl)(5-methyl-1,3,4-oxadiazol-2-yl)amino)ethanol]	7.17
CCN(C[C@@]12CC[C@@H](c3cc(-c4c(F)cccc4F)nnc31)C2(C)C)S(C)(=O)=O [Example 156, N-(((5R,8S)-3-(2,6-difluorophenyl)-9,9-dimethyl-5,6,7,8-tetrahydro-5,8-methanocinnolin-8-yl)methyl)-N-ethylmethanesulfonamide]	7.34
CCN(C[C@@]12CC[C@@H](c3cc(-c4c(F)cccc4F)nnc31)C2(C)C)C(C)=O [Example 157, N-(((5R,8S)-3-(2,6-difluorophenyl)-9,9-dimethyl-5,6,7,8-tetrahydro-5,8-methanocinnolin-8-yl)methyl)-N-ethylacetamide]	7.72
CCN(C[C@@]12CC[C@@H](c3cc(-c4c(F)cccc4F)nnc31)C2(C)C)C(=O)c1cc(C)on1 [Example 158, N-(((5R,8S)-3-(2,6-difluorophenyl)-9,9-dimethyl-5,6,7,8-tetrahydro-5,8-methanocinnolin-8-yl)methyl)-N-ethyl-5-methylisoxazole-3-carboxamide]	8.22
CCN(C[C@@]12CC[C@@H](c3cc(-c4c(F)cccc4F)nnc31)C2(C)C)C(N)=O [Example 159, 1-(((5R,8S)-3-(2,6-difluorophenyl)-9,9-dimethyl-5,6,7,8-tetrahydro-5,8-methanocinnolin-8-yl)methyl)-1-ethylurea]	7.59
CCN(C[C@@]12CC[C@@H](c3cc(-c4c(F)cccc4F)nnc31)C2(C)C)C(=O)CC#N [Example 160, 2-cyano-N-(((5R,8S)-3-(2,6-difluorophenyl)-9,9-dimethyl-5,6,7,8-tetrahydro-5,8-methanocinnolin-8-yl)methyl)-N-ethylacetamide]	7.57
CC1(C)[C@H]2CC[C@]1(c1cnccn1)c1nnc(-c3c(F)cccc3F)cc12 [Example 161]	7.05
CCN(C[C@@]12CC[C@@H](c3cc(-c4c(F)cccc4F)nnc31)C2(C)C)C(=O)CO [Example 162, N-(((5R,8S)-3-(2,6-difluorophenyl)-9,9-dimethyl-5,6,7,8-tetrahydro-5,8-methanocinnolin-8-yl)methyl)-N-ethyl-2-hydroxyacetamide]	8.10
CCN(C[C@@]12CC[C@@H](c3cc(-c4c(F)cccc4F)nnc31)C2(C)C)c1ccccn1 [Example 163, N-(((5R,8S)-3-(2,6-difluorophenyl)-9,9-dimethyl-5,6,7,8-tetrahydro-5,8-methanocinnolin-8-yl)methyl)-N-ethylpyridin-2-amine]	8.22
CCN(C[C@@]12CC[C@@H](c3cc(-c4c(F)cccc4F)nnc31)C2(C)C)c1ncccn1 [Example 164, N-(((5R,8S)-3-(2,6-difluorophenyl)-9,9-dimethyl-5,6,7,8-tetrahydro-5,8-methanocinnolin-8-yl)methyl)-N-ethylpyrimidin-2-amine]	8.40
Cn1c([C@@]23CC[C@@H](c4cc(-c5c(F)cccc5F)nnc42)C3(C)C)cccc1=O [Example 165, 6-((5R,8S)-3-(2,6-difluorophenyl)-9,9-dimethyl-5,6,7,8-tetrahydro-5,8-methanocinnolin-8-yl)-1-methylpyridin-2(1H)-one]	8.10
Cc1nnc(N(CC(F)F)C[C@@]23CC[C@@H](c4cc(-c5c(F)cccc5F)nnc42)C3(C)C)o1 [Example 166, N-(2,2-difluoroethyl)-N-(((5R,8S)-3-(2,6-difluorophenyl)-9,9-dimethyl-5,6,7,8-tetrahydro-5,8-methanocinnolin-8-yl)methyl)-5-methyl-1,3,4-oxadiazol-2-amine]	8.05
CC(C)(C)OC(=O)NCCC1CN(C(=O)[C@]23CC[C@H](c4cc(-c5c(F)cccc5F)nnc42)C3(C)C)C1 [Example 168, tert-butyl (2-(1-((5S,8S)-3-(2,6-difluorophenyl)-9,9-dimethyl-5,6,7,8-tetrahydro-5,8-methanocinnoline-8-carbonyl)azetidin-3-yl)ethyl)carbamate]	5.53
CC1(C)[C@H]2CC[C@]1(C(=O)Nc1ccccc1C#N)c1nnc(-c3ccccc3F)cc12 [Example 171, (5R,8R)-N-(2-cyanophenyl)-3-(2-fluorophenyl)-9,9-dimethyl-5,6,7,8-tetrahydro-5,8-methanocinnoline-8-carboxamide]	5.47

SMILES	pIC50
CC1(C)[C@H]2CC[C@]1(C(=O)N1CC(F)(F)C1)c1nnc(-c3ccccc3F)cc12 [Example 172, (3,3-difluoroazetidin-1-yl)((5R,8R)-3-(2-fluorophenyl)-9,9-dimethyl-5,6,7,8-tetrahydro-5,8-methanocinnolin-8-yl)methanone]	5.85
COC1CCN(C(=O)[C@@]23CC[C@@H](c4cc(-c5ccccc5F)nnc42)C3(C)C)CC1 [Example 173, ((5R,8R)-3-(2-fluorophenyl)-9,9-dimethyl-5,6,7,8-tetrahydro-5,8-methanocinnolin-8-yl)(4-methoxypiperidin-1-yl)methanone]	5.61
CC(C)(C#N)NC(=O)[C@@]12CC[C@@H](c3cc(-c4ccccc4F)nnc31)C2(C)C [Example 174, (5R,8R)-N-(2-cyanopropan-2-yl)-3-(2-fluorophenyl)-9,9-dimethyl-5,6,7,8-tetrahydro-5,8-methanocinnoline-8-carboxamide]	5.51
CC1(C)[C@H]2CC[C@]1(C(=O)NC1CCCC1)c1nnc(-c3ccccc3F)cc12 [Example 175, (5R,8R)-N-cyclopentyl-3-(2-fluorophenyl)-9,9-dimethyl-5,6,7,8-tetrahydro-5,8-methanocinnoline-8-carboxamide]	5.94
CC1(C)[C@H]2CC[C@]1(C(=O)NCCO)c1nnc(-c3ccccc3F)cc12 [Example 176, (5R,8R)-3-(2-fluorophenyl)-N-(2-hydroxyethyl)-9,9-dimethyl-5,6,7,8-tetrahydro-5,8-methanocinnoline-8-carboxamide]	5.57
CC1(C)[C@H]2CC[C@]1(C(=O)NC1CCC1)c1nnc(-c3ccccc3F)cc12 [Example 177, (5R,8R)-N-cyclobutyl-3-(2-fluorophenyl)-9,9-dimethyl-5,6,7,8-tetrahydro-5,8-methanocinnoline-8-carboxamide]	5.82
CNC(=O)[C@@]12CC[C@@H](c3cc(-c4ccccc4F)nnc31)C2(C)C [Example 178, (5R,8R)-3-(2-fluorophenyl)-N,9,9-trimethyl-5,6,7,8-tetrahydro-5,8-methanocinnoline-8-carboxamide]	5.69
Cc1c[nH]nc1C1CN(C(=O)[C@@]23CC[C@@H](c4cc(-c5ccccc5F)nnc42)C3(C)C)C1 [Example 179, ((5R,8R)-3-(2-fluorophenyl)-9,9-dimethyl-5,6,7,8-tetrahydro-5,8-methanocinnolin-8-yl)(3-(4-methyl-1H-pyrazol-3-yl)azetidin-1-yl)methanone]	5.55
CNC(=O)C1CN(C(=O)[C@@]23CC[C@@H](c4cc(-c5ccccc5F)nnc42)C3(C)C)CCO1 (stereo partly drawn) [Example 180, 4-((5R,8R)-3-(2-fluorophenyl)-9,9-dimethyl-5,6,7,8-tetrahydro-5,8-methanocinnoline-8-carbonyl)-N-methylmorpholine-2-carboxamide]	5.42
Cc1ccnc(C2CN(C(=O)[C@@]34CC[C@@H](c5cc(-c6ccccc6F)nnc53)C4(C)C)C2)n1 [Example 181, ((5R,8R)-3-(2-fluorophenyl)-9,9-dimethyl-5,6,7,8-tetrahydro-5,8-methanocinnolin-8-yl)(3-(4-methylpyrimidin-2-yl)azetidin-1-yl)methanone]	5.56
CC1(C)[C@H]2CC[C@]1(C(=O)N1CC(c3cc[nH]n3)C1)c1nnc(-c3ccccc3F)cc12 [Example 182, (3-(1H-pyrazol-3-yl)azetidin-1-yl)((5R,8R)-3-(2-fluorophenyl)-9,9-dimethyl-5,6,7,8-tetrahydro-5,8-methanocinnolin-8-yl)methanone]	5.52
CC(NC(=O)[C@@]12CC[C@@H](c3cc(-c4ccccc4F)nnc31)C2(C)C)c1ccccc1 (stereo partly drawn) [Example 183, (5R,8R)-3-(2-fluorophenyl)-9,9-dimethyl-N-(1-phenylethyl)-5,6,7,8-tetrahydro-5,8-methanocinnoline-8-carboxamide]	6.00
CC1(C)[C@H]2CC[C@]1(N1CCNC1=O)c1nnc(-c3c(F)cccc3F)cc12 [Example 184, 1-((5R,8R)-3-(2,6-difluorophenyl)-9,9-dimethyl-5,6,7,8-tetrahydro-5,8-methanocinnolin-8-yl)imidazolidin-2-one]	6.77
CC1(C)[C@H]2CC[C@]1(c1ncn[nH]1)c1nnc(-c3c(F)cccc3F)cc12 [Example 185, (5R,8R)-3-(2,6-difluorophenyl)-9,9-dimethyl-8-(1H-1,2,4-triazol-5-yl)-5,6,7,8-tetrahydro-5,8-methanocinnoline]	5.66
Cn1ccc([C@@]23CC[C@@H](c4cc(-c5c(F)cccc5F)nnc42)C3(C)C)n1 [Example 186]	6.82

From patent US9981916B2 (Genentech, Inc., priority 2013, dated 2018)
